In the supplement of paper PMC13380429:
± gives the standard deviation of the averaged measurements.

How the values were obtained:
Conditions in all cases: 72 h
Caco-2 [1] = assay: relative viability EC50 (midpoint between 100% and the lowest measured viability); higher = less toxic
Calu-3 [2] = assay: as above
HepG2 [3] = assay: as above
U2OS [4] = assay: as above
Vero E6 [5] = assay: as above
Caco-2 [6] = assay: cell viability relative to DMSO; higher = less toxic
Calu-3 [7] = assay: as above
HepG2 [8] = assay: as above
U2OS [9] = assay: as above
Vero E6 [10] = assay: as above
Caco-2 [11] = assay: drug sensitivity score (DSS) for viability; higher = more toxic; extreme values may be limits of the assay
Calu-3 [12] = assay: as above
HepG2 [13] = assay: as above
U2OS [14] = assay: as above
Vero E6 [15] = assay: as above

Structure (SMILES) | relative viability EC50 (Caco-2 [1]) | relative viability EC50 (Calu-3 [2]) | relative viability EC50 (HepG2 [3]) | relative viability EC50 (U2OS [4]) | relative viability EC50 (Vero E6 [5]) | cell viability (Caco-2 [6]; 1 nM) | cell viability (Caco-2 [6]; 10 nM) | cell viability (Caco-2 [6]; 100 nM) | cell viability (Caco-2 [6]; 1000 nM) | cell viability (Caco-2 [6]; 10000 nM) | cell viability (Calu-3 [7]; 1 nM) | cell viability (Calu-3 [7]; 10 nM) | cell viability (Calu-3 [7]; 100 nM) | cell viability (Calu-3 [7]; 1000 nM) | cell viability (Calu-3 [7]; 10000 nM) | cell viability (HepG2 [8]; 1 nM) | cell viability (HepG2 [8]; 10 nM) | cell viability (HepG2 [8]; 100 nM) | cell viability (HepG2 [8]; 1000 nM) | cell viability (HepG2 [8]; 10000 nM) | cell viability (U2OS [9]; 1 nM) | cell viability (U2OS [9]; 10 nM) | cell viability (U2OS [9]; 100 nM) | cell viability (U2OS [9]; 1000 nM) | cell viability (U2OS [9]; 10000 nM) | cell viability (Vero E6 [10]; 1 nM) | cell viability (Vero E6 [10]; 10 nM) | cell viability (Vero E6 [10]; 100 nM) | cell viability (Vero E6 [10]; 1000 nM) | cell viability (Vero E6 [10]; 10000 nM) | drug sensitivity score (Caco-2 [11]) | drug sensitivity score (Calu-3 [12]) | drug sensitivity score (HepG2 [13]) | drug sensitivity score (U2OS [14]) | drug sensitivity score (Vero E6 [15])
C=CC(=O)Nc1cccc(Oc2nc(Nc3ccc(N4CCN(C)CC4)cc3)ncc2Cl)c1 [WZ-3146] | 1.56 µM | 0.539 µM | 1.16 µM | 1.46 µM | 1.11 µM | 90.7% | 100% | 99.3% | 78.3% | 11.6% | 95.9% | 89.9% | 86.4% | 36.9% | 2.3% | 108% | 100% | 109% | 75% | 38.7% | 97.6% | 100% | 95.5% | 72.1% | 0.2% | 104% | 99.3% | 106% | 59.9% | 7.8% | 8.3 | 13.9 | 6.7 | 9.7 | 10.3
CC(C)c1cc(CNc2nc(Nc3cc(C4CC4)[nH]n3)cc(N3CCN(C)CC3)n2)on1 [XL228] | 1.22 µM | 0.593 µM | 0.266 µM | 0.47 µM | 1.35 µM | 111% | 94.4% | 93% | 72.5% | 33.1% | 95.7% | 99.3% | 87.3% | 61.5% | 33.9% | 95.3% | 98.3% | 62.4% | 40.6% | 7.4% | 104% | 103% | 84.8% | 30% | 0% | 94% | 97.8% | 101% | 75.3% | 23% | 6.7 | 8.8 | 16.2 | 15.1 | 7.8
CC(=O)c1ccc(S(=O)(=O)NC(=O)NC2CCCCC2)cc1 [acetohexamide] | > 10 µM | > 10 µM | > 10 µM | > 10 µM | > 10 µM | 97.1% | 85.8% | 90.7% | 75.4% | 83.1% | 91.8% | 112% | 90.2% | 107% | 104% | 99.5% | 103% | 106% | 113% | 106% | 95.1% | 98% | 96.6% | 96.3% | 96.9% | 92.7% | 98.2% | 97.1% | 98.9% | 110% | 3.7 | 0 | 0 | 0 | 0
O=C(O)C(=O)Nc1cccc(-c2nnn[nH]2)c1 [acitazanolast] | > 10 µM | > 10 µM | > 10 µM | > 10 µM | > 10 µM | 100% | 86.7% | 88.4% | 95.9% | 97.1% | 100% | 107% | 91.3% | 105% | 99% | 94.8% | 99% | 101% | 96.3% | 110% | 99.8% | 98.4% | 99.3% | 101% | 96% | 98.7% | 99.5% | 99.4% | 100% | 97.4% | 0 | 0 | 0 | 0 | 0
O=C(NCCN1CCN(c2ncccn2)CC1)C12CC3CC(CC(C3)C1)C2 [adatanserin] | > 10 µM | > 10 µM | > 10 µM | > 10 µM | > 10 µM | 92% | 114% | 94.7% | 102% | 88.5% | 101% | 96.5% | 107% | 86.8% | 101% | 102% | 98% | 88.5% | 90.7% | 90.9% | 94.9% | 94.2% | 97.8% | 96.9% | 97.4% | 99.5% | 97.9% | 101% | 99.4% | 104% | 0 | 0 | 0.9 | 0 | 0
Nc1ncnc2c1ncn2[C@@H]1O[C@H](CO)[C@@H](O)[C@H]1O [adenosine] | > 10 µM | > 10 µM | > 10 µM | > 10 µM | > 10 µM | 103 ± 2.4% | 100 ± 4.7% | 97.9 ± 1.8% | 94.5 ± 1.1% | 95.2 ± 8.6% | 107% | 88.4% | 96.3% | 96.1% | 95.2% | 98.05 ± 0.21% | 102 ± 6.9% | 96.7 ± 6.6% | 110 ± 9.2% | 88 ± 9.1% | 102 ± 1.8% | 98 ± 3% | 98.2 ± 3.2% | 98.5 ± 2.2% | 104 ± 5.9% | 102.5 ± 0.99% | 102 ± 2.3% | 97.3 ± 3.5% | 103.5 ± 0.35% | 99.95 ± 0.35% | 0 | 0 | 0.1 ± 0.14 | 0 | 0
O=C(NCc1ccc2c(c1)OCO2)c1c(Cl)cccc1Cl [alda-1] | > 10 µM | > 10 µM | > 10 µM | > 10 µM | > 10 µM | 93% | 91.3% | 100% | 93.1% | 99.1% | 91.7% | 100% | 109% | 102% | 108% | 92% | 105% | 99.8% | 101% | 95.9% | 103% | 99.8% | 99% | 100% | 100% | 94.2% | 105% | 98.8% | 91.2% | 98.3% | 0 | 0 | 0 | 0 | 0
C=C1/C(=C\C=C2/CCC[C@]3(C)[C@@H]([C@H](C)CCCC(C)C)CC[C@@H]23)C[C@@H](O)C[C@@H]1O [alfacalcidol] | > 10 µM | > 10 µM | > 10 µM | > 10 µM | > 10 µM | 98.2% | 98.1% | 92.5% | 85% | 85.9% | 90.9% | 94.3% | 99.6% | 87.5% | 101% | 91.4% | 105% | 98.4% | 108% | 102% | 94.1% | 93.7% | 99% | 89.1% | 91.5% | 90.2% | 98.3% | 92.2% | 97.1% | 101% | 1.5 | 0 | 0 | 0 | 0
C=CCc1cc(OC)c(O)c(C(=O)NCCO)c1 [alibendol] | > 10 µM | > 10 µM | > 10 µM | > 10 µM | > 10 µM | 90.7% | 112% | 90.5% | 93% | 99.9% | 93.6% | 99.3% | 87.2% | 99.7% | 101% | 92.4% | 98.7% | 101% | 92.5% | 102% | 102% | 105% | 95% | 104% | 99.6% | 105% | 99.2% | 99.6% | 105% | 97.4% | 0 | 0 | 0 | 0 | 0
CC(C)c1ccc2oc3nc(N)c(C(=O)O)cc3c(=O)c2c1 [amlexanox] | > 10 µM | > 10 µM | > 10 µM | > 10 µM | > 10 µM | 94% | 95.9% | 99.8% | 89.8% | 108% | 92.3% | 87.4% | 104% | 101% | 99.5% | 96.7% | 101% | 99.9% | 109% | 113% | 97.1% | 94.3% | 100% | 96.4% | 99.8% | 96.6% | 99.8% | 98.4% | 102% | 106% | 0 | 0 | 0 | 0 | 0
Clc1cccc(SC2CCNCC2)n1 [anpirtoline] | > 10 µM | > 10 µM | > 10 µM | > 10 µM | > 10 µM | 93.1% | 93.5% | 101% | 100% | 96.8% | 94.9% | 98.6% | 93.5% | 98.3% | 114% | 109% | 102% | 107% | 104% | 97.9% | 99.3% | 96.5% | 100% | 96.1% | 100% | 102% | 104% | 99.1% | 98.4% | 96.5% | 0 | 0 | 0 | 0 | 0
COc1cc2cc(c1Cl)N(C)C(=O)C[C@H](OC(=O)C(C)C)[C@]1(C)O[C@@H]1[C@H](C)[C@@H]1C[C@@](O)(NC(=O)O1)[C@H](OC)/C=C/C=C(\C)C2 [ansamitocin-p-3] | < 0.001 µM | < 0.001 µM | < 0.001 µM | < 0.001 µM | 0.0021 µM | 45% | 47.9% | 39% | 40.9% | 35.1% | 62.6% | 53.6% | 36.7% | 37.4% | 37.8% | 39% | 32.4% | 38% | 33.8% | 30.9% | 39.6% | 29.1% | 19.9% | 17.9% | 16.3% | 72.1% | 32.5% | 29.8% | 21.2% | 18.4% | 28.4 | 27.7 | 33.8 | 37.6 | 35
CCOc1ccc(C[C@H]2NC(=O)CCSSC[C@@H](C(=O)N3CCC[C@H]3C(=O)N[C@@H](CCCN)C(=O)NCC(N)=O)NC(=O)[C@H](CC(N)=O)NC(=O)[C@H]([C@@H](C)O)NC(=O)[C@H]([C@@H](C)CC)NC2=O)cc1 [atosiban] | > 10 µM | > 10 µM | > 10 µM | > 10 µM | > 10 µM | 93.1% | 108% | 102% | 102% | 91.8% | 103% | 105% | 103% | 118% | 98.9% | 107% | 99.5% | 92.8% | 90.4% | 97.4% | 100% | 99.1% | 94.9% | 100% | 98.7% | 102% | 96.2% | 110% | 102% | 100% | 0 | 0 | 0 | 0 | 0
